Tested on: Daudi human Burkitt’s Lymphoma cell line
Assay: Study 7: Daudi xenograft human Burkitt's lymphoma subcutaneous tumor model (daratumumab or AB79)
Assay type: in vivo, CB17 SCID mice
Procedure: Low tumor volumes can cause problems with the data analysis, so all measurements below 25 cubic mm (including 0 values) were excluded from the analysis. After this exclusion step, the tumor volume was assumed to follow an exponential growth model. More specifically, for a given animal and treatment group,
Pairwise comparisons were performed, where the mean growth rates were compared for various pairs of treatment conditions. The results were summarized using the growth rate inhibition (GRI). Suppose µT and µC are the mean tumor growth rates for the treatment and reference groups, respectively. Define
Here, µAB, µA, µB, and µControl are the mean growth rates for the combination, drug A, drug B, and control groups, respectively. As before, µv is the mean tumor growth rate for the vehicle group, which in most cases is the same as the control group. The standard error of the synergy score was calculated as the square root of the sum of squared standard errors across the four groups. The degrees of freedom were estimated using the Welch-Satterthwaite equation. A hypothesis test was performed to determine if the synergy score differed from 0. P-values were calculated by dividing the synergy score by its standard error and tested against a t-distribution (two-tailed) with the above-calculated degrees of freedom. A P value of less than 0.05 is statistically significant.
The combination results can be interpreted as follows. Statistically significant negative synergy scores indicate a synergistic combination (“Syn.”). Statistically significant positive synergy scores indicate a sub-additive combination (“Sub-add.”) when the combination performs better (i.e. has a lower growth rate) than the best performing single agent. Statistically significant positive synergy scores indicate an antagonistic combination (“Antag.”) when the combination performs worse than the best performing single agent. Scores that are not statistically significant should be considered additive (“Add.”).
Daudi is a human Burkitt’s Lymphoma cell line. A Daudi human xenograft tumor model was generated by subcutaneous inoculation with 2.0 × 10^6 Daudi cells (cell suspension) in 7 weeks old female CB17 SCID mice (Charles River Laboratories, 251 Ballardvale St., Wilmington, MA) in the flank. When the mean tumor volume reached approximately 110 mm3, the animals were randomized into one vehicle control and six treatment groups (n=8/group). Mice were then dosed with 20% HPβCD or Compound I-263a and/or daratumumab or AB79 over a 21-day period. Tumor growth and body weight were measured twice per week during the treatment and post-treatment periods, and mice were humanely euthanized once they had reached their humane endpoint.
A 0.75 mg/mL stock solution of I-263a was formulated weekly in 20% HPβCD and administered intravenously (IV) based on an average body weight using a 0.2 mL dosing volume. Final doses of I-263a received were 7.5 mg/kg. I-263a was administered on a BIW schedule for 3 weeks (Days 1, 4, 8, 11, 15, and 18). Daratumumab (anti-CD38 antibody) (Myoderm Medical Supplies, 48 E Main St., Norristown, PA 19401) was purchased at the beginning of the study and stored at 4° C. according to manufacturer’s instructions. Final dose of daratumumab received was 7.5 mg/kg based on average body weight. Daratumumab was administered intraperitoneally (IP) using a 0.1 mL dosing volume, on a BIW schedule for 3 weeks (Days, 1, 4, 8, 11, 15, and 18). AB79 was formulated on the day of dosing in 0.9% saline and administered intraperitoneally (IP) using a 0.1 mL dosing volume, on a BIW schedule for 3 weeks (Days, 1, 4, 8, 11, 15, and 18). Final dose of AB79 was 7.5 mg/kg based on average body weight.
Tumors were measured twice weekly using Vernier calipers. Tumor volumes were calculated using standard equation: V = W2 × L/2, where V = volume, W = width, and L = length for the tumor. […]

AB79: human monoclonal antibody that binds specifically to the CD38 transmembrane glycoprotein
Tumor Volume on Day 22 (±SEM) (AB79 7.5 mg/kg BIW IP): 1033.8 (±208.8)
GRI% (AB79 7.5 mg/kg BIW IP, vs vehicle): 29%
Tumor growth relative to vehicle-treated tumors (pairwise comparison) (each agent 7.5 mg/kg BIW, I-263a p = 0.105, daratumumab p < 0.001, AB79 p = 0.002, both combinations p < 0.001, data up to Day 22): tumor growth inhibition
